Measured values published in ChEMBL document CHEMBL1140006, “2-Cycloalkyl phenoxyacetic acid CRTh2 receptor antagonists” (Bioorg Med Chem Lett, 2007).
Calls of active or inactive are those of the source. The rule behind the calls is not given here.

Key:
[1] = target: T1, Prostaglandin D2 receptor 2 (Homo sapiens, UniProt Q9Y5Y4); experiment: Displacement of […] from human CRTh2 receptor expressed in CHO cells; type: cell-based
T1 sequence (Q9Y5Y4 whole entry): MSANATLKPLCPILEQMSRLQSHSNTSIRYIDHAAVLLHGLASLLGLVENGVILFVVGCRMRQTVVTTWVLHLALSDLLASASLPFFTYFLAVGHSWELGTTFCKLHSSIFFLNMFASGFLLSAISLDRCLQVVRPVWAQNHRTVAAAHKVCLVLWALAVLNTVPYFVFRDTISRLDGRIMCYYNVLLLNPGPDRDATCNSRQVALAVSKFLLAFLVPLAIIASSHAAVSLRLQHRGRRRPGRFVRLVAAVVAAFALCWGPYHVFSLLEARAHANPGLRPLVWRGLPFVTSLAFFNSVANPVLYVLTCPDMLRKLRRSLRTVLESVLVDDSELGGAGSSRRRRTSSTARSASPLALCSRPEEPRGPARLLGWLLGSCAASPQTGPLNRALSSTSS

[2] = target: T2, Prostaglandin D2 receptor (Homo sapiens, UniProt Q13258); experiment: Binding affinity at prostanoid DP receptor
T2 sequence (Q13258 whole entry): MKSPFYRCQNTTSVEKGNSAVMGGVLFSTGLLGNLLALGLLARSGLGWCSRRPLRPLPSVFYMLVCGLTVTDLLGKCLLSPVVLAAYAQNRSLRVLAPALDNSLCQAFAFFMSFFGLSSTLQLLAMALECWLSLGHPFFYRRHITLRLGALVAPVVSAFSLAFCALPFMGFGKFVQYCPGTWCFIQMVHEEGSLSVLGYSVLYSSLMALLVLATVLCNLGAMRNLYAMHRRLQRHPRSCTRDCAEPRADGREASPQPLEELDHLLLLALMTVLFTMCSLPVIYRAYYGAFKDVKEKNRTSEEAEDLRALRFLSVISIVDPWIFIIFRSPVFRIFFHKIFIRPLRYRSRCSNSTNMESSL

Eosinophil [3] = experiment: Inhibition of 13,14-dihydro-15-ketoprostaglandin D2-stimulated human eosinophils shape change; type: functional, cell-based
[4] = Volume of distribution at steady state in rat; type: ADME, organism-based; conditions: in vivo, read-out: Vdss
[5] = Half life in rat at 0.5 mg/kg, iv; type: ADME, organism-based; parameters: dose 0.5 mg/kg, route intravenous; conditions: in vivo
[6] = AUCall in rat; type: ADME, organism-based; conditions: plasma
[7] = Oral bioavailability in rat at 2 mg/kg; type: ADME, organism-based; conditions: in vivo
Cytochrome P450 1A2 = target: T3, Cytochrome P450 1A2 (Homo sapiens, UniProt P05177); experiment: Inhibition of CYP1A2; type: ADME
T3 sequence (P05177 whole entry): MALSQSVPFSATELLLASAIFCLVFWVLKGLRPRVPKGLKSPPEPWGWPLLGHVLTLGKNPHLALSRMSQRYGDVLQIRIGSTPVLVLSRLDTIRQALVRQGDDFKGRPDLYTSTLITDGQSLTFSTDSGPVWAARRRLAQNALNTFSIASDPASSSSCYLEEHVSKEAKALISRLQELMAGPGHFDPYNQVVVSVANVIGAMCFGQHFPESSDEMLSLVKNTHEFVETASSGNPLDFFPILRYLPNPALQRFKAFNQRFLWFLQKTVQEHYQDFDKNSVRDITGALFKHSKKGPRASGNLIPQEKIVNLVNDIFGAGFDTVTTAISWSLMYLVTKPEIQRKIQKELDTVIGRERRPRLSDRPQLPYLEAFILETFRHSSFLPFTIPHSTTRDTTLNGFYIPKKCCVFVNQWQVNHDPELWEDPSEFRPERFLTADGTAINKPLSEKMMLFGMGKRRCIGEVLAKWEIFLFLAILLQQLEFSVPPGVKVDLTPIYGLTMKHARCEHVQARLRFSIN

Cytochrome P450 2C9 = Cytochrome P450 2C9 (Homo sapiens, UniProt P11712); experiment: Inhibition of CYP2C9; type: ADME
[8] = Intrinsic clearance in rat microsomes; type: ADME, Microsome
[9] = Permeability from basolateral to apical side of Caco-2 cell membrane; type: ADME, cell-based; conditions: human, read-out: permeability
[10] = Clearance in rat; type: ADME, organism-based; conditions: in vivo
[11] = Permeability from apical to basolateral side of Caco-2 cell membrane; type: ADME, cell-based; conditions: human, read-out: permeability
Cytochrome P450 3A4 = Cytochrome P450 3A4 (Homo sapiens, UniProt P08684); experiment: Inhibition of CYP3A4; type: ADME
Cytochrome P450 2C19 = Cytochrome P450 2C19 (Homo sapiens, UniProt P33261); experiment: Inhibition of CYP2C19; type: ADME
[12] = Cmax in rat; type: ADME, organism-based; conditions: in vivo
Cytochrome P450 2D6 = Cytochrome P450 2D6 (Homo sapiens, UniProt P10635); experiment: Inhibition of CYP2D6; type: ADME
Eosinophil [13] = experiment: Inhibition of 13,14-dihydro-15-ketoprostaglandin D2-stimulated human eosinophils shape change upto 10 uM; type: functional, cell-based
[14] = Intrinsic clearance in human microsomes; type: ADME, Microsome
Thromboxane A2 receptor = target: T4, Thromboxane A2 receptor (Homo sapiens, UniProt P21731); experiment: Binding affinity at prostanoid TP receptor
T4 sequence (P21731 whole entry): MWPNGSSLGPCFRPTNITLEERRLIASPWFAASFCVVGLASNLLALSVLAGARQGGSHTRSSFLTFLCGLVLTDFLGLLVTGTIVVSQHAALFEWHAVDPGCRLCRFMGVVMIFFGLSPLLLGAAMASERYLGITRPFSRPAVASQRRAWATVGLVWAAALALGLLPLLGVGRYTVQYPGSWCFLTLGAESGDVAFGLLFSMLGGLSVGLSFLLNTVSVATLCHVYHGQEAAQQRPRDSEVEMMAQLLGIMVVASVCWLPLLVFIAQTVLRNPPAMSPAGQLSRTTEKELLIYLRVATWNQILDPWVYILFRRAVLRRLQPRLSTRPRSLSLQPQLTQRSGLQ

[15] = target: Prostaglandin E2 receptor EP2 subtype (Homo sapiens, UniProt P43116); experiment: Binding affinity at prostanoid EP2 receptor
Chain of Prostaglandin E2 receptor EP2 subtype (P43116 whole entry): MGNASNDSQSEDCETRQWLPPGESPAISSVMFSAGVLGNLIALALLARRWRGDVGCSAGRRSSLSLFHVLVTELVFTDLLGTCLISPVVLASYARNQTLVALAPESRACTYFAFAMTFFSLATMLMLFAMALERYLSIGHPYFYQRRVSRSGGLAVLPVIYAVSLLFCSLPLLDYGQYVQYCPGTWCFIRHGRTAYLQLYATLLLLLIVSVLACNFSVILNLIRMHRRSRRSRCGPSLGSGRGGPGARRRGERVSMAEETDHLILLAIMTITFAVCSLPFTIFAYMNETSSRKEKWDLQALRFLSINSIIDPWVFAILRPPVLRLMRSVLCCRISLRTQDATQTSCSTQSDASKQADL

Chain of Cytochrome P450 2D6 (P10635 whole entry): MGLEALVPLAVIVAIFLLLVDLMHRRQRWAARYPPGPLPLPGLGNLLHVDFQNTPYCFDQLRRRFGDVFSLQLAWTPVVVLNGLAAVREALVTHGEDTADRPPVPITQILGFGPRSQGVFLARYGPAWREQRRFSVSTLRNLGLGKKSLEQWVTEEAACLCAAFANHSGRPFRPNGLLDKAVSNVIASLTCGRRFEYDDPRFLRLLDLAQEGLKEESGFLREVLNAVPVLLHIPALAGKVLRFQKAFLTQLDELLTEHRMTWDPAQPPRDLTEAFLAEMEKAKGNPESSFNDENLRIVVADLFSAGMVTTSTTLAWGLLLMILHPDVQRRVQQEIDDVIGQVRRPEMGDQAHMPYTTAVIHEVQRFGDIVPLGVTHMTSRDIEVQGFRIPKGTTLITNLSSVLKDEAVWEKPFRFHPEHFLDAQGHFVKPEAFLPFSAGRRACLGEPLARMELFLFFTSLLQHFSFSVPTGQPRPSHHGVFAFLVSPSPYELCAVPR
Chain of Cytochrome P450 2C19 (P33261 whole entry): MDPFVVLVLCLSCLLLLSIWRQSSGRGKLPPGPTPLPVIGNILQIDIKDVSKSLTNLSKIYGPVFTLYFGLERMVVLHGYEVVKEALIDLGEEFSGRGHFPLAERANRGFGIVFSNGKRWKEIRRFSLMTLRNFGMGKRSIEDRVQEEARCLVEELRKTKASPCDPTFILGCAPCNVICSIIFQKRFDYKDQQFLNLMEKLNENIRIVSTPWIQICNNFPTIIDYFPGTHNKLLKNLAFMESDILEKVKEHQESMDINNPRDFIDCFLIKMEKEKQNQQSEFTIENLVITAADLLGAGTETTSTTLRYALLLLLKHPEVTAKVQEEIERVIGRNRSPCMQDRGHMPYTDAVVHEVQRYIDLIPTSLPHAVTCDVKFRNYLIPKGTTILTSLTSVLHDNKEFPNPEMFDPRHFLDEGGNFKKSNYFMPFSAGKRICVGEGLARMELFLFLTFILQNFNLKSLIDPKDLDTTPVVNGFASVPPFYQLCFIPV
Chain of Cytochrome P450 2C9 (P11712 whole entry): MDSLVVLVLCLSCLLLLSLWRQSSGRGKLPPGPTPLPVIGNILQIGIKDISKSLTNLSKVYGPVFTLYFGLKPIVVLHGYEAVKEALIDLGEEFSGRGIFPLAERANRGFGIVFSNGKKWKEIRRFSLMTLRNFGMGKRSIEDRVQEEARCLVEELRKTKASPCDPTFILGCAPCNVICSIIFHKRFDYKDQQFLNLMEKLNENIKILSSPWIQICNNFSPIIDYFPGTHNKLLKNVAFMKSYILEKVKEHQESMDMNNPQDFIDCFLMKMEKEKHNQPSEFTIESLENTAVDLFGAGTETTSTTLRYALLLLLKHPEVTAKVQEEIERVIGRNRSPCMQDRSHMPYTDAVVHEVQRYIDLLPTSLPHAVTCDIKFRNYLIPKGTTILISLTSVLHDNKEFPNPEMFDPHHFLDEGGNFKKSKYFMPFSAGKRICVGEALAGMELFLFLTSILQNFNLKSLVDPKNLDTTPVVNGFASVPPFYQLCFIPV
Chain of Cytochrome P450 3A4 (P08684 whole entry): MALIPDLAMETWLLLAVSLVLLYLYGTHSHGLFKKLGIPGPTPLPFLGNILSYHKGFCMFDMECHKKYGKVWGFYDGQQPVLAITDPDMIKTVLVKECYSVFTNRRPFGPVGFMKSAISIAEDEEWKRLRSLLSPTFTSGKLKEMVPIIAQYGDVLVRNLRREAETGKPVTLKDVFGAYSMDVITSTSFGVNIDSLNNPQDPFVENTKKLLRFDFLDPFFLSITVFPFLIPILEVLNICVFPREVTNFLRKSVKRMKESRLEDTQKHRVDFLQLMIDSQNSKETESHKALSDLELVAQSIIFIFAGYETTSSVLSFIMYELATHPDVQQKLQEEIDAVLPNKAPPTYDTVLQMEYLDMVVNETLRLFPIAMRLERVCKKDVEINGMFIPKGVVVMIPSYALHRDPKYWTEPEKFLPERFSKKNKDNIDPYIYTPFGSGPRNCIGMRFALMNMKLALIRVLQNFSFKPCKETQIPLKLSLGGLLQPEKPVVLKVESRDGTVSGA

Ki [1] | Ki [2] | IC50 (Eosinophil [3]) | Compound | further results
0.311 µM | > 10 µM |  | O=C(O)COc1ccccc1C1CCCCC1 | 
1.99 µM | > 10 µM |  | O=C(O)CCCOc1ccc(Cl)cc1C1CCCCC1 | 
> 10 µM | > 10 µM |  | Clc1ccc(OCc2nnn[nH]2)c(C2CCCCC2)c1 | 
0.782 µM | > 10 µM |  | COc1ccc(OCC(=O)O)c(C2CCCCC2)c1 | 
0.083 µM | 5.9 µM | 0.448 µM | O=C(O)COc1ccc(Br)cc1C1CCCCC1 | 
0.799 µM | > 10 µM |  | O=C(O)CCOc1ccc(Cl)cc1C1CCCCC1 | 
> 10 µM | > 10 µM |  | CS(=O)(=O)NC(=O)COc1ccc(Cl)cc1C1CCCCC1 | 
0.09 µM | 1.21 µM | 0.451 µM | CC1(c2cc(Cl)ccc2OCC(=O)O)CCCCC1 | 
0.446 µM | > 10 µM |  | O=C(O)COc1ccc(F)cc1C1CCCCC1 | 
0.099 µM | 6.4 µM |  | O=C(O)COc1ccc(-c2ccc(F)cc2)cc1C1CCCCC1 | 
0.15 µM | 4.8 µM | 1.01 µM | O=C(O)COc1ccc(Cl)cc1C1CCCC1 | 
> 10 µM | > 10 µM |  | OCCOc1ccc(Cl)cc1C1CCCCC1 | 
0.23 µM | > 10 µM | 0.052 µM | N#Cc1ccc(OCC(=O)O)c(C2CCCCC2)c1 | 
0.02 µM | > 10 µM | 0.172 µM | O=C(O)COc1ccc(C(F)(F)F)cc1C1CCCCC1 | 
5.13 µM | 4.74 µM |  | C=CCc1cc(Cl)ccc1OCC(=O)O | 
 | > 10 µM |  | C[C@@H](Oc1ccc(Cl)cc1C1CCCCC1)C(=O)O | 
3.28 µM | 8.9 µM |  | COC(=O)COc1ccc(Cl)cc1C1CCCCC1 | 
 | 4.49 µM |  | C[C@H](Oc1ccc(Cl)cc1C1CCCCC1)C(=O)O | 
0.059 µM | 1.88 µM | 0.248 µM | O=C(O)COc1ccc(Cl)cc1C1CCCCCC1 | Vd [4]: 0.52 L/kg; half-life [5]: 1.18 h; AUC [6]: 11.6 µM·h; bioavailability [7]: 58%; IC50 (Cytochrome P450 1A2): > 10 µM; IC50 (Cytochrome P450 2C9): > 10 µM; microsomal CLint [8]: 205 µL/min/mg; Papp B→A [9]: 21.4 ×10⁻⁶ cm/s; clearance [10]: 7.3 mL/min/kg; Papp A→B [11]: 8.4 ×10⁻⁶ cm/s; IC50 (Cytochrome P450 3A4): > 10 µM; IC50 (Cytochrome P450 2C19): > 10 µM; Cmax [12]: 4.7 µM; IC50 (Cytochrome P450 2D6): > 10 µM; Activity (Eosinophil [13]): inactive; microsomal CLint [14]: 109 µL/min/mg
0.353 µM | > 10 µM |  | Cc1ccc(OCC(=O)O)c(C2CCCCC2)c1 | 
0.154 µM | 7.6 µM | 0.093 µM | O=C(O)COc1ccc(Cl)cc1C1CCCCC1 | Ki (Thromboxane A2 receptor): > 10 µM; Ki [15]: 3 µM

Compound | Ki [1] | Ki [2] | IC50 (Eosinophil [3]) | further results
Cc1cc(Cl)ccc1OCC(=O)O [METAXON] | > 10 µM | > 10 µM |  | 
